Structures can show the parent of a compound that is named as a salt.

From patent US8268827B2, “Pyridazinone derivatives as PARP inhibitors” (Istituto di Ricerche di Biologia Molecolare P. Angeletti …, priority 2007, dated 2012) come the findings set out here.

Test [1] relates to BRCA-1 silenced HeLa cells (HeLa shBRCA1-GFP). The experiment in a line: Proliferation assay in BRCA-1 silenced HeLa cells. The settings on record: Homo sapiens; BRCA1 silenced HeLa cells, 168 hours; read-out: CC50 in the BRCA1 silenced HeLa cells. Format: cell-based. A digest of the protocol: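 Antiproliferative effect was read by Celltiter Blue fluorescence after 168 h of compound treatment at 37° C., 5% CO2. Cells were matched HeLa pairs, BRCA1-shRNA (>80% silenced, GFP) versus non-shRNA vector control, in DMEM with 10% FCS.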

Test [2] has as its target T1, PARP-1 (Homo sapiens, UniProt P09874).
T1 construct: purchased Trevigen 4668-500-01
The experiment in a line: PARP-1 SPA assay. Format: biochemical. The method, boiled down:
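PARP-1 reaction in Tris pH 8 buffer with MgCl2, spermine, KCl, activated calf thymus DNA and a mix of [3H]-NAD, NAD and biotinylated NAD, 2 h at RT. Stopped with EDTA/streptavidin SPA beads and poly(ADP-ribose) incorporation counted by scintillation.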

T1 sequence (P09874 whole entry): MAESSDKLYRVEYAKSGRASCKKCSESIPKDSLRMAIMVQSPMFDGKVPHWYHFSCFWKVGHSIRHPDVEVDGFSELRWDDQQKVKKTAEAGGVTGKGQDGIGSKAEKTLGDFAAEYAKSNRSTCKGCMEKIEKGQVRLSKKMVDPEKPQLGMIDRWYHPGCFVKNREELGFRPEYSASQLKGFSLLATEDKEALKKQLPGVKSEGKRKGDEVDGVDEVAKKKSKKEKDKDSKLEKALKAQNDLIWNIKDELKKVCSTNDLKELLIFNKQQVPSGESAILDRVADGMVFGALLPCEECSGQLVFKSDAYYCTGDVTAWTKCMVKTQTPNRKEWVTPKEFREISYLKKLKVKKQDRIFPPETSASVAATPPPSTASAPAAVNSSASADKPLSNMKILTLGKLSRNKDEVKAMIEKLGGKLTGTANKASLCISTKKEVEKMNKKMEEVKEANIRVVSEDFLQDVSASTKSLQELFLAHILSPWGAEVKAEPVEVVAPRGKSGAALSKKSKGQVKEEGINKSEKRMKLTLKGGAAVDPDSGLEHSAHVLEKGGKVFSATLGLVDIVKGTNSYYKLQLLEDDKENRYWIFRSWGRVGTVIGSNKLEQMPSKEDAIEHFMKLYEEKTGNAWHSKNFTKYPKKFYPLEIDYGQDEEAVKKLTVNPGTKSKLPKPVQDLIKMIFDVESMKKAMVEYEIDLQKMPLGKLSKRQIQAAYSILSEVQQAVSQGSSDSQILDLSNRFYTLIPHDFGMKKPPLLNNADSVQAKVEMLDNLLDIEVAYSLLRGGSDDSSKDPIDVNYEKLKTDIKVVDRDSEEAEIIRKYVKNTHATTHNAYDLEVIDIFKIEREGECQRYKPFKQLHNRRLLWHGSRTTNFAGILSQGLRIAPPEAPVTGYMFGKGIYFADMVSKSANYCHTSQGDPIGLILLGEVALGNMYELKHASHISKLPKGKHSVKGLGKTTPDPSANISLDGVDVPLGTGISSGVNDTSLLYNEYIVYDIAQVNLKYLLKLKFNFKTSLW

Regarding `Cc1c(Cc2ccc(F)c(C(=O)N3CC(=O)N(C4C[C@H]5CC[C@@H]4C5)C(C)C3)c2)n[nH]c(=O)c1C` (stereo partly drawn) [Example 140, 6-[3-({4-[(1R,4S)-bicyclo[2.2.1]hept-2-yl]-3-methyl-5-oxopiperazin-1-yl}carbonyl)-4-fluorobenzyl]-4,5-dimethyl-3-oxo-2,3-dihydropyridazin-1-ium trifluoroacetate], the CC50 in test [1] was < 50 nM. Also, the IC50 in test [2] lay in the range of 5 to 25 nM.
The like results for `Cc1c(Cc2ccc(F)c(C(=O)N3CCN(C4CCCOC4)C(=O)C3)c2)n[nH]c(=O)c1C(F)(F)F` (centres unmarked) [Example 141, 3-(4-Fluoro-3-{[3-oxo-4-(tetrahydro-2H-pyran-3-yl)piperazin-1-yl]carbonyl}benzyl)-4-methyl-6-oxo-5-(trifluoromethyl)-1,6-dihydropyridazin-1-ium trifluoroacetate] were, in that order, < 50 nM and 5 to 25 nM.
For the compound `Cc1c(Cc2ccc(F)c(C(=O)N3CCN(C4CCOC4)C(=O)C3)c2)n[nH]c(=O)c1C(F)(F)F` (centres unmarked) [Example 142, 3-(4-Fluoro-3-{[3-oxo-4-(tetrahydrofuran-3-yl)piperazin-1-yl]carbonyl}benzyl)-4-methyl-6-oxo-5-(trifluoromethyl)-1,6-dihydropyridazin-1-ium trifluoroacetate], in test [1], the CC50 was < 50 nM. The IC50 in test [2] was < 5 nM.
The like results for `CCc1cc(Cc2ccc(F)c(C(=O)N3CCN([C@H]4CCCOC4)C(=O)C3)c2)n[nH]c1=O` [Example 144, 4-ethyl-6-[4-fluoro-3-({3-oxo-4-[(3S)-tetrahydro-2H-pyran-3-yl]piperazin-1-yl}carbonyl)benzyl]pyridazin-3(2H)-one] were, in that order, < 5000 nM and < 5 nM.
In the case of `CCc1cc(Cc2ccc(F)c(C(=O)N3CCN([C@@H]4CCCOC4)C(=O)C3)c2)n[nH]c1=O` [Example 145, 4-ethyl-6-[4-fluoro-3-({3-oxo-4-[(3R)-tetrahydro-2H-pyran-3-yl]piperazin-1-yl}carbonyl)benzyl]pyridazin-3(2H)-one], in test [1], the CC50 lay within 50 to 500 nM. Further, the IC50 in test [2] was 5 to 25 nM.
In the case of `Cc1c(Cc2ccc(F)c(C(=O)N3CCN(C4CCOCC4)C(=O)C3)c2)n[nH]c(=O)c1C(F)(F)F` [Example 146, 3-(4-Fluoro-3-{[3-oxo-4-(tetrahydro-2H-pyran-4-yl)piperazin-1-yl]carbonyl}benzyl)-4-methyl-6-oxo-5-(trifluoromethyl)-1,6-dihydropyridazin-1-ium trifluoroacetate], the CC50 in test [1] was < 50 nM. The IC50 in test [2] fell in the range of 5 to 25 nM.
The like results for `CCN1C(=O)CN(C(=O)c2cc(Cc3n[nH]c(=O)c(C(F)(F)F)c3C)ccc2F)CC1C` (centres unmarked) [Example 147, 3-{3-[(4-Ethyl-3-methyl-5-oxopiperazin-1-yl)carbonyl]-4-fluorobenzyl}-4-methyl-6-oxo-5-(trifluoromethyl)-1,6-dihydropyridazin-1-ium trifluoroacetate] were, in that order, < 50 nM and 5 to 25 nM.
The corresponding values for `CCc1cc(Cc2ccc(F)c(C(=O)N3CCN(C4CCc5ccccc5C4)C(=O)C3)c2)n[nH]c1=O` (centres unmarked) [Example 148, 4-Ethyl-6-(4-fluoro-3-{[3-oxo-4-(1,2,3,4-tetrahydronaphthalen-2-yl)piperazin-1-yl]carbonyl}benzyl)pyridazin-3(2H)-one] are 50 to 500 nM and < 5 nM.
The like results for `Cc1c(Cc2ccc(F)c(C(=O)N3CCN(C4CCC(F)C4)C(=O)C3)c2)n[nH]c(=O)c1C` (centres unmarked) [Example 150, 6-(4-Fluoro-3-{[4-(3-fluorocyclopentyl)-3-oxopiperazin-1-yl]carbonyl}benzyl)-4,5-dimethylpyridazin-3(2H)-one] were, in that order, 50 to 500 nM and < 5 nM.
With `C[C@@H]1CN(C(=O)c2cc(Cc3cc(C(F)(F)F)c(=O)[nH]n3)ccc2F)CC(=O)N1C1CCCC1` [Example 151, 6-(3-{[(3R)-4-cyclopentyl-3-methyl-5-oxopiperazin-1-yl]carbonyl}-4-fluorobenzyl)-4-(trifluoromethyl)pyridazin-3(2H)-one], the CC50 in test [1] was < 50 nM. Further, the half-inhibitory concentration (IC50) in test [2] is 5 to 25 nM.
